Measurements taken from patent US20230157952A1, “METHOD FOR IMPROVING THE STABILITY OF A PHARMACEUTICAL COMPOSITION COMPRISING A HIGH PENETRATION DRUG, AND THE PHARMACEUTICAL COMPOSITION OBTAINED THEREFROM” (Techfields Inc., priority 2020, published 2023).

Assay: Effect of temperature (and pH) on the stability of the solution (purity)
Format: physicochemical
Conditions: 7% solution in water

With `CCN(CC)CCOC(=O)C(C)c1ccc2oc(-c3ccc(Cl)cc3)nc2c1.Cl` (centres unmarked) the “Purity(%) at day 0” value (pH 1.0, day 0) was 98.1 ± 0.3%, the “Purity(%) at day 21 (5° C.)” value (pH 1.0, day 21, 5° C.) was 92.9 ± 0.3% and the “Purity(%) at day 21 (25° C.)” value (pH 1.0, day 21, 25° C.) was 69.2 ± 0.3%. The “Purity(%) at day 21 (40° C.)” value (pH 1.0, day 21, 40° C.) was 11.3 ± 0.3%, the “Purity (%) at day 21 (60° C.)” value (pH 1.0, day 21, 60° C.) was 0% and the “Purity(%) at day 0” value (pH 2.0, day 0) was 98.2 ± 0.3%. For the same compound, the “Purity(%) at day 21 (5° C.)” value (pH 2.0, day 21, 5° C.) was 96.1 ± 0.3%, the “Purity(%) at day 21 (25° C.)” value (pH 2.0, day 21, 25° C.) was 83.0 ± 0.3% and the “Purity(%) at day 21 (40° C.)” value (pH 2.0, day 21, 40° C.) was 20.5 ± 0.3%. For the same compound, the “Purity (%) at day 21 (60° C.)” value (pH 2.0, day 21, 60° C.) was 0%, the “Purity(%) at day 0” value (pH 3.0, day 0) was 98.3 ± 0.2% and the “Purity(%) at day 21 (5° C.)” value (pH 3.0, day 21, 5° C.) was 97.5 ± 0.2%. The “Purity(%) at day 21 (25° C.)” value (pH 3.0, day 21, 25° C.) was 94.0 ± 0.3%, the “Purity(%) at day 21 (40° C.)” value (pH 3.0, day 21, 40° C.) was 45.3 ± 0.2% and the “Purity (%) at day 21 (60° C.)” value (pH 3.0, day 21, 60° C.) was 0%. The “Purity(%) at day 0” value (pH 3.7, day 0) was 98.5 ± 0.1%, the “Purity(%) at day 21 (5° C.)” value (pH 3.7, day 21, 5° C.) was 97.6 ± 0.2% and the “Purity(%) at day 21 (25° C.)” value (pH 3.7, day 21, 25° C.) was 96.6 ± 0.2%. The “Purity(%) at day 21 (40° C.)” value (pH 3.7, day 21, 40° C.) was 51.9 ± 0.2%, the “Purity (%) at day 21 (60° C.)” value (pH 3.7, day 21, 60° C.) was 11.3 ± 0.3% and the “Purity(%) at day 0” value (pH 4.0, day 0) was 98.6 ± 0.1%. For the same compound, the “Purity(%) at day 21 (5° C.)” value (pH 4.0, day 21, 5° C.) was 98.0 ± 0.1%, the “Purity(%) at day 21 (25° C.)” value (pH 4.0, day 21, 25° C.) was 96.7 ± 0.2% and the “Purity(%) at day 21 (40° C.)” value (pH 4.0, day 21, 40° C.) was 62.7 ± 0.2%. For the same compound, the “Purity (%) at day 21 (60° C.)” value (pH 4.0, day 21, 60° C.) was 18.6 ± 0.2%, the “Purity(%) at day 0” value (pH 4.3, day 0) was 98.6 ± 0.1% and the “Purity(%) at day 21 (5° C.)” value (pH 4.3, day 21, 5° C.) was 98.0 ± 0.1%. For the same compound, the “Purity(%) at day 21 (25° C.)” value (pH 4.3, day 21, 25° C.) was 96.7 ± 0.1%, the “Purity(%) at day 21 (40° C.)” value (pH 4.3, day 21, 40° C.) was 63.1 ± 0.2% and the “Purity (%) at day 21 (60° C.)” value (pH 4.3, day 21, 60° C.) was 17.7 ± 0.2%. The “Purity(%) at day 0” value (pH 4.6, day 0) was 98.6 ± 0.1%, the “Purity(%) at day 21 (5° C.)” value (pH 4.6, day 21, 5° C.) was 98.0 ± 0.1% and the “Purity(%) at day 21 (25° C.)” value (pH 4.6, day 21, 25° C.) was 96.6 ± 0.1%. For the same compound, the “Purity(%) at day 21 (40° C.)” value (pH 4.6, day 21, 40° C.) was 50.3 ± 0.2%, the “Purity (%) at day 21 (60° C.)” value (pH 4.6, day 21, 60° C.) was 12.3 ± 0.2% and the “Purity(%) at day 0” value (pH 5.0, day 0) was 98.4 ± 0.2%. The “Purity(%) at day 21 (5° C.)” value (pH 5.0, day 21, 5° C.) was 97.1 ± 0.2%, the “Purity(%) at day 21 (25° C.)” value (pH 5.0, day 21, 25° C.) was 92.9 ± 0.2% and the “Purity(%) at day 21 (40° C.)” value (pH 5.0, day 21, 40° C.) was 39.8 ± 0.2%. The “Purity (%) at day 21 (60° C.)” value (pH 5.0, day 21, 60° C.) was 2.9 ± 0.2%, the “Purity(%) at day 0” value (pH 6.0, day 0) was 98.2 ± 0.2% and the “Purity(%) at day 21 (5° C.)” value (pH 6.0, day 21, 5° C.) was 94.8 ± 0.2%. For the same compound, the “Purity(%) at day 21 (25° C.)” value (pH 6.0, day 21, 25° C.) was 86.8 ± 0.2%, the “Purity(%) at day 21 (40° C.)” value (pH 6.0, day 21, 40° C.) was 20.6 ± 0.3% and the “Purity (%) at day 21 (60° C.)” value (pH 6.0, day 21, 60° C.) was 0%. For the same compound, the “Purity(%) at day 0” value (pH 7.0, day 0) was 98.0 ± 0.2%, the “Purity(%) at day 21 (5° C.)” value (pH 7.0, day 21, 5° C.) was 89.1 ± 0.3% and the “Purity(%) at day 21 (25° C.)” value (pH 7.0, day 21, 25° C.) was 60.9 ± 0.2%. For the same compound, the “Purity(%) at day 21 (40° C.)” value (pH 7.0, day 21, 40° C.) was 7.4 ± 0.3%, the “Purity (%) at day 21 (60° C.)” value (pH 7.0, day 21, 60° C.) was 0% and the “Purity(%) at day 0” value (pH 8.0, day 0) was 97.7 ± 0.3%. The “Purity(%) at day 21 (5° C.)” value (pH 8.0, day 21, 5° C.) was 78.7 ± 0.3%, the “Purity(%) at day 21 (25° C.)” value (pH 8.0, day 21, 25° C.) was 47.9 ± 0.3% and the “Purity(%) at day 21 (40° C.)” value (pH 8.0, day 21, 40° C.) was 0%. The “Purity (%) at day 21 (60° C.)” value (pH 8.0, day 21, 60° C.) was 0%.
For `CCN(CC)CCOC(=O)CCc1nc(-c2ccccc2)c(-c2ccccc2)o1.Cl`, the “Purity(%) at day 0” value (pH 1.0, day 0) was 98.2 ± 0.3%, the “Purity(%) at day 21 (5° C.)” value (pH 1.0, day 21, 5° C.) was 90.1 ± 0.3% and the “Purity(%) at day 21 (25° C.)” value (pH 1.0, day 21, 25° C.) was 59.9 ± 0.3%. The “Purity(%) at day 21 (40° C.)” value (pH 1.0, day 21, 40° C.) was 7.9 ± 0.3%, the “Purity (%) at day 21 (60° C.)” value (pH 1.0, day 21, 60° C.) was 0% and the “Purity(%) at day 0” value (pH 2.0, day 0) was 98.4 ± 0.3%. For the same compound, the “Purity(%) at day 21 (5° C.)” value (pH 2.0, day 21, 5° C.) was 93.0 ± 0.2%, the “Purity(%) at day 21 (25° C.)” value (pH 2.0, day 21, 25° C.) was 74.8 ± 0.2% and the “Purity(%) at day 21 (40° C.)” value (pH 2.0, day 21, 40° C.) was 17.6 ± 0.2%. The “Purity (%) at day 21 (60° C.)” value (pH 2.0, day 21, 60° C.) was 0%, the “Purity(%) at day 0” value (pH 3.0, day 0) was 98.6 ± 0.1% and the “Purity(%) at day 21 (5° C.)” value (pH 3.0, day 21, 5° C.) was 96.9 ± 0.2%. For the same compound, the “Purity(%) at day 21 (25° C.)” value (pH 3.0, day 21, 25° C.) was 88.9 ± 0.2%, the “Purity(%) at day 21 (40° C.)” value (pH 3.0, day 21, 40° C.) was 36.4 ± 0.2% and the “Purity (%) at day 21 (60° C.)” value (pH 3.0, day 21, 60° C.) was 0%. The “Purity(%) at day 0” value (pH 3.7, day 0) was 98.7 ± 0.2%, the “Purity(%) at day 21 (5° C.)” value (pH 3.7, day 21, 5° C.) was 97.8 ± 0.1% and the “Purity(%) at day 21 (25° C.)” value (pH 3.7, day 21, 25° C.) was 94.5 ± 0.2%. For the same compound, the “Purity(%) at day 21 (40° C.)” value (pH 3.7, day 21, 40° C.) was 50.6 ± 0.2%, the “Purity (%) at day 21 (60° C.)” value (pH 3.7, day 21, 60° C.) was 7.3 ± 0.3% and the “Purity(%) at day 0” value (pH 4.0, day 0) was 98.8 ± 0.1%. For the same compound, the “Purity(%) at day 21 (5° C.)” value (pH 4.0, day 21, 5° C.) was 97.9 ± 0.1%, the “Purity(%) at day 21 (25° C.)” value (pH 4.0, day 21, 25° C.) was 95.1 ± 0.1% and the “Purity(%) at day 21 (40° C.)” value (pH 4.0, day 21, 40° C.) was 53.2 ± 0.2%. The “Purity (%) at day 21 (60° C.)” value (pH 4.0, day 21, 60° C.) was 20.2 ± 0.2%, the “Purity(%) at day 0” value (pH 4.3, day 0) was 98.8 ± 0.2% and the “Purity(%) at day 21 (5° C.)” value (pH 4.3, day 21, 5° C.) was 97.9 ± 0.2%. For the same compound, the “Purity(%) at day 21 (25° C.)” value (pH 4.3, day 21, 25° C.) was 95.2 ± 0.2%, the “Purity(%) at day 21 (40° C.)” value (pH 4.3, day 21, 40° C.) was 54.8 ± 0.1% and the “Purity (%) at day 21 (60° C.)” value (pH 4.3, day 21, 60° C.) was 21.8 ± 0.3%. For the same compound, the “Purity(%) at day 0” value (pH 4.6, day 0) was 98.7 ± 0.1%, the “Purity(%) at day 21 (5° C.)” value (pH 4.6, day 21, 5° C.) was 97.8 ± 0.2% and the “Purity(%) at day 21 (25° C.)” value (pH 4.6, day 21, 25° C.) was 95.0 ± 0.1%. The “Purity(%) at day 21 (40° C.)” value (pH 4.6, day 21, 40° C.) was 54.7 ± 0.2%, the “Purity (%) at day 21 (60° C.)” value (pH 4.6, day 21, 60° C.) was 15.5 ± 0.3% and the “Purity(%) at day 0” value (pH 5.0, day 0) was 98.6 ± 0.3%. The “Purity(%) at day 21 (5° C.)” value (pH 5.0, day 21, 5° C.) was 96.3 ± 0.2%, the “Purity(%) at day 21 (25° C.)” value (pH 5.0, day 21, 25° C.) was 89.8 ± 0.1% and the “Purity(%) at day 21 (40° C.)” value (pH 5.0, day 21, 40° C.) was 30.1 ± 0.2%. For the same compound, the “Purity (%) at day 21 (60° C.)” value (pH 5.0, day 21, 60° C.) was 3.2 ± 0.2%, the “Purity(%) at day 0” value (pH 6.0, day 0) was 98.4 ± 0.2% and the “Purity(%) at day 21 (5° C.)” value (pH 6.0, day 21, 5° C.) was 93.4 ± 0.2%. For the same compound, the “Purity(%) at day 21 (25° C.)” value (pH 6.0, day 21, 25° C.) was 73.9 ± 0.2%, the “Purity(%) at day 21 (40° C.)” value (pH 6.0, day 21, 40° C.) was 16.5 ± 0.2% and the “Purity (%) at day 21 (60° C.)” value (pH 6.0, day 21, 60° C.) was 0%. For the same compound, the “Purity(%) at day 0” value (pH 7.0, day 0) was 98.2 ± 0.3%, the “Purity(%) at day 21 (5° C.)” value (pH 7.0, day 21, 5° C.) was 89.2 ± 0.3% and the “Purity(%) at day 21 (25° C.)” value (pH 7.0, day 21, 25° C.) was 59.7 ± 0.2%. For the same compound, the “Purity(%) at day 21 (40° C.)” value (pH 7.0, day 21, 40° C.) was 7.1 ± 0.3%, the “Purity (%) at day 21 (60° C.)” value (pH 7.0, day 21, 60° C.) was 0% and the “Purity(%) at day 0” value (pH 8.0, day 0) was 98.0 ± 0.3%. The “Purity(%) at day 21 (5° C.)” value (pH 8.0, day 21, 5° C.) was 77.1 ± 0.3%, the “Purity(%) at day 21 (25° C.)” value (pH 8.0, day 21, 25° C.) was 40.8 ± 0.3% and the “Purity(%) at day 21 (40° C.)” value (pH 8.0, day 21, 40° C.) was 0%. For the same compound, the “Purity (%) at day 21 (60° C.)” value (pH 8.0, day 21, 60° C.) was 0%.
